Test results from US20040023984A1, “Compounds for the treatment of alzheimer's disease” (priority 1987, published 2004).
Where two headings read alike, the source gives them in different places.

How the values were obtained:
acetylcholinesterase [1] = molecular target: T1, acetylcholinesterase (Homo sapiens, UniProt P22303); assay: Acetylcholinesterase Inhibition Assay (other cholinesterase activity tests, may be less reliable); assay type: biochemical; conditions: results may be less reliable
acetylcholinesterase [2] = molecular target: T1, acetylcholinesterase; assay: Inhibition of acetylcholinesterase, procedure of Ellman (acetylthiocholine substrate, photometric); assay type: biochemical; conditions: for cholinesterase inhibition at 10^−5 M: further compounds; for inhibition at 1 µM: read-out: inhibition of acetylcholinesterase at concentration 10^−6 molar; for inhibition at 0.001 µM: read-out: inhibition of acetylcholinesterase at concentration 10^−9 molar
Experimental: The anticholinesterase activity of the compounds prepared in the above examples was assayed by an assay for inhibition of acetylcholinesterase following the procedure of G. Ellman, […], 7:88-95 (1961) Acetylthiocholine serves as substrate since it acts like acetylcholine. Acetylcholinesterase cleaves it to thiocholine and acetate which react with dithiobisnitrobenzoate to form a yellow color which is measured photometrically.
This assay was carried out at dilution of 10^−5 molar
The compounds were tested in the assay described after Example 5 but at different concentrations. The results obtained were as follows:
Further compounds were prepared by methods analogous to those described above and were tested in a cholinesterase assay as described above.

[3] = Solubility noted on isolation of the product; assay type: physicochemical
cholinesterase = conditions: Irwin and Smith, Arch. Int. Pharmacodyn. 127:314-330; cited from earlier work
[4] = tested on: scopolamine induced memory deficit; assay: Scopolamine dementia dark avoidance test (passive avoidance); assay type: in vivo, male CFW mice
Experimental: Furnished data on the effects of these compound on cholinesterase activity were used to determine doses for testing. […] The two other compounds were tested at 1,3 and 10 mg/kg sc and did antagonize the scopolamine induced deficit.
Training and testing of passive avoidance were conducted in a two-compartment (light/dark) test cage. On the training day, mice were individually placed in the light half of the cage and after entering the dark compartment, were administered a 3 sec 0.4 mA footshock. They were then removed from the test chamber and returned to their home cages. Twenty-four hours later, the animals were again placed in the lighted half of the test cage and the latency to enter the dark compartment was measured.
All animals in each group of 15 naive male CFW mice were injected twice subcutaneously. Thirty minutes prior to training, animals were administered 3 mg/kg scopolamine HBr or its 0.9% NaCl vehicle. Five minutes prior to training, independent groups were administered one of three doses of the test compounds or the distilled water vehicle. One group in each experiment received vehicle twice, another group received scopolamine and the dH2O vehicle; the remaining groups received scopolamine and a test compound.
A cutoff value (CO), defined as the second-longest latency in the scopolamine/vehicle treated group, was used to determine whether a compound was active. If 20% or more of the animals in a treatment group had latencies greater than the CO value, the compound was considered active at that dose.
The three compounds were tested in two separate experiments; the results are presented below in Tables 1 and 2. Doses considered active are marked with an asterisk (*).

[5] = tested on: nucleas basalis-lesioned animals; assay: Nucleus basalis model, passive avoidance in shuttle box; assay type: in vivo, mice; conditions: nucleus basalis model, mice, drug given three and ½ hours before learning trials
Source text: The following test provides a good animal model for Alzheimer's disease in humans: A selective lesion is placed in a subcortical nucleus (nucleus basalis of Meynert) with a resultant cortical cholinergic deficiency, similar in magnitude to that seen in early to moderate stage Alzheimer's disease. Numerous behavioral deficits, including the inability to learn and retain new information, characterizes this lesion. Drugs that can normalize these abnormalities would have a reasonable expectation of efficacy in Alzheimer's disease. Haroutunian, V, Kanof P, Davis, K L: Pharmacological alleviations of cholinergic-lesion-induced memory defects in rats. Life Sciences, 37:945-952 (1985).
Galanthamine n-butyl carbamate was tested in the nucleus basalis model for galanthamine discussed in the Hartounian et al paper noted above. In the test, mice were given the drug three and ½ hours before two learning trials in a shuttle box. They are placed in the lighted compartment and receive an electric footshock when they cross into the preferred side, the dark. The next day, they are again placed in the lighted compartment and the time to enter the dark is noted. The latency to enter the dark compartment is the basis for this figure. […] Below 50 mg/kg no side effects were noted.

[6] = dilution of 10^−5 molar, read-out: PERCENT INHIBITION OF ACETYLCHOLINESTERASE
[7] = 10^−5 molar, read-out: inhibition of acetylcholinesterase at concentration 10^−5
[8] = Table 2, scopolamine + 1 mg/kg sc, cut-off 41 seconds
[9] = Table 2, scopolamine + 3 mg/kg sc, cut-off 41 seconds
[10] = Table 2, scopolamine + 10 mg/kg sc, cut-off 41 seconds
[11] = Table 1, scopolamine + 0.3 mg/kg sc, cut-off 38 seconds
[12] = Table 1, scopolamine + 2.0 mg/kg sc, cut-off 38 seconds
[13] = Table 1, scopolamine + 3.0 mg/kg sc, cut-off 38 seconds

T1 sequence (P22303 32-614, species assumed): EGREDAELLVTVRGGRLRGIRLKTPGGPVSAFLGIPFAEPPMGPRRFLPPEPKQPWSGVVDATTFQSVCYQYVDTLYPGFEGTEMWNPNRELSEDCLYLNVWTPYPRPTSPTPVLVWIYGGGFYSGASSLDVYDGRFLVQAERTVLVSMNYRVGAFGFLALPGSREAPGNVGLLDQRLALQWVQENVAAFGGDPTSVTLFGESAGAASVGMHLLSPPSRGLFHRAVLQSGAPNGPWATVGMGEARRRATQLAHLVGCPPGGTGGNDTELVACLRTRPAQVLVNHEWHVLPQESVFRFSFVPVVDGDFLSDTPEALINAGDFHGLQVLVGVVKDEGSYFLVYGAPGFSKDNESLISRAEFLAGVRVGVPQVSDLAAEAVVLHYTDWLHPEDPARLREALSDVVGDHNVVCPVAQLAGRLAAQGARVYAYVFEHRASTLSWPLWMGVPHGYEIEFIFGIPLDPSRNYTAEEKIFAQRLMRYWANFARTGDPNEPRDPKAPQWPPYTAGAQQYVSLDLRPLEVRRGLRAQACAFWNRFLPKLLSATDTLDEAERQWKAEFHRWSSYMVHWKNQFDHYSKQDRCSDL

Compound: COc1ccc2c3c1O[C@H]1C[C@@H](OC(=O)c4ccccc4F)C=C[C@@]31CCN(C)C2 [o-F-benzoic ester]
- % Inhibition at 10^−6 (acetylcholinesterase [1]): 39%
- % Inhibition at 10^−7 (acetylcholinesterase [1]): 37%
- % Inhibition at −10^−5 (acetylcholinesterase [1]): 27%

Compound: COc1ccc2c3c1OC1CC(N)CCC31CCN(C)C2 (stereo not drawn) [2-amino-2-dehydroxy lycoramine]
- cholinesterase inhibition at 10^−5 M (acetylcholinesterase [2]): 17

Compound: CCCOC(N)=O [n-propyl carbamate]
- % Inhibition at 10^−6 (acetylcholinesterase [1]): 50%
- % Inhibition at 10^−7 (acetylcholinesterase [1]): 21%
- % Inhibition at −10^−5 (acetylcholinesterase [1]): 34%

Compound: COc1ccc2c3c1O[C@H]1C[C@@H](O)C=CC31CC[N+](C)(C)C2.[I-] (stereo partly drawn) [galanthamine methiodide]
- solubility in cold water ([3]; cold water): slightly soluble
- solubility in hot water ([3]; hot water): soluble

Compound: COc1cc2c3c(c1)OC1C[C@@H](O)C=C[C@@]31CC[N+](C)(Cc1ccccc1)C2.[Br-] (stereo partly drawn) [galanthamine benzyl bromide]
- inhibition at 1 µM (acetylcholinesterase [2]): 77%
- inhibition at 0.001 µM (acetylcholinesterase [2]): 40%
- solubility in alcohols [3]: soluble

Compound: CCCCCC(=O)O[C@H]1C=C[C@@]23CCN(C)Cc4ccc(OC)c(c42)O[C@H]3C1 [hexanoic ester]
- % Inhibition at 10^−6 (acetylcholinesterase [1]): 30%
- % Inhibition at 10^−7 (acetylcholinesterase [1]): 36%
- % Inhibition at −10^−5 (acetylcholinesterase [1]): 55%

Compound: CCCCC(=O)O[C@H]1C=C[C@@]23CCN(C)Cc4ccc(OC)c(c42)O[C@H]3C1 [valeric ester]
- % Inhibition at 10^−6 (acetylcholinesterase [1]): 35%
- % Inhibition at 10^−7 (acetylcholinesterase [1]): 37%
- % Inhibition at −10^−5 (acetylcholinesterase [1]): 41%

Compound: COc1ccc2c3c1OC1CC(I)CCC31CCN(C)C2 (stereo not drawn) [2-iodo-2-dehydroxy lycoramine]
- cholinesterase inhibition at 10^−5 M (acetylcholinesterase [2]): 15

Compound: COc1ccc2c3c1O[C@H]1C[C@@H](O)CC[C@@]31CCN(C)C2 [Product of Example 5]
- inhibition at 10 µM (acetylcholinesterase [2]; [6]): 30%

Compound: COc1ccc2c3c1OC1C(O)CC=C4C(C2)[N+](C)(C)CCC431.[I-] (stereo not drawn) [neopin methiodide]
- cholinesterase activity (cholinesterase): ineffective

Compound: CN1CC[C@@]23C=C[C@H](O)CC2Oc2c(O)ccc(c23)C1 (stereo partly drawn) [O-demethyl-galanthamine, O-demethyl galanthamine]
- inhibition at 10 µM (acetylcholinesterase [2]; [7]): ≥ 100%
- inhibition at 1 µM (acetylcholinesterase [2]): 89%
- inhibition at 0.001 µM (acetylcholinesterase [2]): 55%

Compound: COc1ccc2c3c1O[C@H]1C[C@H](OC(C)=O)C=C[C@@]31CCN(C)C2 [epigalanthamine acetate (from Example 8), epigalanthamine acetate]
- inhibition at 10 µM (acetylcholinesterase [2]; [7]): 21%
- solubility in alcohols [3]: soluble

Compound: COc1ccc2c3c1OC1CC(OC(C)=O)CCC31CC[N+](C)(C)C2.[I-] (stereo not drawn) [lycoramine acetate methiodide]
- cholinesterase activity (cholinesterase): ineffective

Compound: COc1ccc2c3c1O[C@H]1C[C@@H](OC(=O)CC(C)C)C=C[C@@]31CCN(C)C2 [iso-valeroyl ester]
- % Inhibition at 10^−6 (acetylcholinesterase [1]): 39%
- % Inhibition at 10^−7 (acetylcholinesterase [1]): 13%
- % Inhibition at −10^−5 (acetylcholinesterase [1]): 33%

Compound: deoxydemethyl lycoramine methiodide
- cholinesterase activity (cholinesterase): good activity

Compound: CCNC(=O)O[C@H]1C=C[C@@]23CCN(C)Cc4ccc(OC)c(c42)O[C@H]3C1 [ethyl carbaxnate]
- % Inhibition at 10^−6 (acetylcholinesterase [1]): 70%
- % Inhibition at 10^−7 (acetylcholinesterase [1]): 9%
- % Inhibition at −10^−5 (acetylcholinesterase [1]): 59%

Compound: COc1ccc2c3c1OC1CC(O)CCC31CCNC2 (stereo not drawn) [N-demethyl lycoramine]
- inhibition of acetylcholinesterase at concentration 10^−5 (acetylcholinesterase [2]; 10^−5 molar): inactive

Compound: COc1ccc2c3c1OC1C[C@H](Cl)C=C[C@@]31CCN(C)C2 (stereo partly drawn) [Product of Example 10]
- inhibition at 10 µM (acetylcholinesterase [2]; [7]): 73%

Compound: 4,5-dehydrogalanthamine
- cholinesterase inhibition at 10^−5 M (acetylcholinesterase [2]): 30

Compound: COc1ccc2c3c1O[C@H]1C[C@@H](OC(C)=O)C=C[C@@]31CCN(C)C2 [Product of Example 2, Galanthamine acetate]
- inhibition at 10 µM (acetylcholinesterase [2]; [6]): 37%
- # > CO/n [4, 8]: 1/15
- % > CO [4, 8]: 7%
- Mean Latency [4, 8]: 21 s
- # > CO/n [4, 9]: 4/15
- Mean Latency [4, 9]: 38 s
- % > CO ([4]; Table 2, scopolamine + 3 mg/kg sc, cut-off 41 seconds, * = dose considered active): 27* %
- # > CO/n [4, 10]: 3/15
- Mean Latency [4, 10]: 31 s
- % > CO ([4]; Table 2, scopolamine + 10 mg/kg sc, cut-off 41 seconds, * = dose considered active): 20* %
- antagonism of scopolamine induced memory deficit ([4]; doses of 3 and 10 mg/kg sc): active

Compound: COc1ccc2c3c1O[C@H]1CC(O)C=C[C@@]31CCN(C)C2 (stereo partly drawn) [Galanthamine, reference compound]
- best dose in passive avoidance test [5]: 3 mg/kg

Compound: COc1ccc2c3c1OC1CC(OC(=O)Nc4cccc5ccccc45)C=CC31CCN(C)C2 (stereo not drawn) [Product of Example 4]
- PERCENT INHIBITION OF ACETYLCHOLINESTERASE (acetylcholinesterase [2]; dilution of 10^−5 molar): 60%

Compound: CCCCCCCCOC(N)=O [octyl carbamate]
- % Inhibition at 10^−6 (acetylcholinesterase [1]): 35%
- % Inhibition at 10^−7 (acetylcholinesterase [1]): 16%
- % Inhibition at −10^−5 (acetylcholinesterase [1]): 55%

Compound: lycoramine azide
- cholinesterase inhibition at 10^−5 M (acetylcholinesterase [2]): 25

Compound: CC(C)OC(N)=O [isopropyl carbamate]
- % Inhibition at 10^−6 (acetylcholinesterase [1]): 0%
- % Inhibition at 10^−7 (acetylcholinesterase [1]): 0%
- % Inhibition at −10^−5 (acetylcholinesterase [1]): 21%

Compound: COc1cc2c3c(c1)OC1C/C(=N/NC(N)=O)C=C[C@@]31CCN(C)C2 (stereo partly drawn) [narwedine semicarbazone]
- inhibition of acetylcholinesterase at concentration 10^−5 (acetylcholinesterase [2]; 10^−5 molar): inactive
- solubility in alcohols [3]: soluble

Compound: COc1ccc2c3c1O[C@H]1C[C@@H](OC(=O)C4CC4)C=C[C@@]31CCN(C)C2 [cyclopropyl carbinol ester]
- % Inhibition at 10^−6 (acetylcholinesterase [1]): 13%
- % Inhibition at 10^−7 (acetylcholinesterase [1]): 0%
- % Inhibition at −10^−5 (acetylcholinesterase [1]): 40%

Compound: COc1ccc2c3c1OC1CC(O)C=C[C@@]31CCNC2 (single isomer, unassigned; (-)) [N-demethyl galanthamine, (−) N-demethylgalanthamine]
- # > CO/n [4, 11]: 0/15
- % > CO [4, 11]: 0%
- Mean Latency [4, 11]: 21 s
- # > CO/n [4, 12]: 2/15
- % > CO [4, 12]: 13%
- Mean Latency [4, 12]: 33 s
- # > CO/n [4, 13]: 2/15
- % > CO [4, 13]: 13%
- Mean Latency [4, 13]: 26 s
- antagonism of scopolamine induced memory deficit ([4]; doses of 0.3, 1.0 and 3.0 mg/kg): inactive

Compound: COc1ccc2c3c1O[C@H]1C[C@@H](OC(=O)Nc4ccccc4)C=C[C@@]31CCN(C)C2 [Product of Example 3]
- inhibition at 10 µM (acetylcholinesterase [2]; [6]): 37%

Compound: COc1ccc2c3c1O[C@H]1C[C@@H](O[Si](C(C)C)(C(C)C)C(C)C)C=C[C@@]31CCN(C)C2 [Product of Example 7]
- inhibition of acetylcholinesterase at concentration 10^−5 (acetylcholinesterase [2]; 10^−5 molar): 17
- solubility in alcohols [3]: soluble
